The values below come from patent US20260120814A1, “SYSTEMS, METHODS, AND DEVICES FOR PREDICTING PHARMACOKINETIC INFLUENCES ON KETOGENESIS FOLLOWING ADMINISTRATION OF TRICAPRILIN” (CERECIN INC., priority 2022, published 2026).

Data set [1] in a line: PBB model population parameters fitted to the phase I clinical trial. Further details: species or system humans. As to conditions: population parameter, after peroral AC-SD-03. The source says:
In some scenarios the PBB model 102 can be written in the Mixtran programming language and executed using Monolix 2020R1 (e.g., Antony, France). The initial parameters and fixed-parameter ranges (e.g., such as those shown in Table 1 and/or the model inputs 106) can be obtained (e.g., from experimentation data and/or literature data).
In the following, population parameters can be obtained for the target population treated with a MCT formulation (e.g., AC-SD-03) using the Stochastic Approximation Expectation-Maximization (SAEM) algorithm. The population parameters can be considered to be log-normally distributed. Additionally, the estimation tasks of the empirical Bayes estimates (EBEs) and the conditional distribution can be performed to calculate the individual predictions and give the uncertainty of the individual parameters and the data for each individual, respectively. The individual clinical data 124 for the free fatty acid (e.g., octanoic acid) and ketones obtained from the pharmacokinetic study can be used for model validation. For instance, the accuracy of the prediction can be assessed by calculating the relative mean absolute prediction error (MAPE, %) using the following equation: […]
In some scenarios, considering that all population parameters can be within the initial ranges and prediction errors can remain at a low level, initial values (Table 1) can provide an estimate of the physiological and formulation-related influences. This leads to the following conclusions. Once tricaprilin reaches the small intestine, with a rate of 1.7 h^1, the absorption of fatty acids can become the rate-limiting step. Also, there can be more significant fluctuations in the absorption rate between different individuals as compared to the much faster lipolysis (4.6 h-1) and ketogenesis (2.6 h^1). The conversion of octanoic acid in the liver can play a minor role in the availability of the active form of tricaprilin. […] These observations can be systematically evaluated in the PPSA, and/or can be provided to the PBB model 102 as model inputs 106 or as part of a validation process.

Details of data set [2]: species or system humans. As to conditions: human, in vivo. An excerpt: To estimate the parameters involved in the distribution, metabolism, and elimination of the free fatty acid (such as octanoic acid), reliable data sources can be identified for generating a training data set to describe plasma pharmacokinetics after intravenous administration of either free fatty acids (such as octanoic acid) or ketones. Pharmacokinetic data 120 related to the MCT (such as tricaprilin) and its metabolites in humans, which can be included in the training data 122 and/or used by a validation system 124 of the biopharmaceutics modeling system, is summarized in Table 2:
In some examples, ketone plasma concentration can be quantified following an intravenous bolus injection of sodium acetoacetate (n=12). Acetoacetate and D-f3-hydroxybutyrate (n=6), two main components of plasma ketones, can also be quantified upon intravenous infusion of D-f3-hydroxybutyrate at three different doses. Blood free fatty acid (such as octanoic acid) concentration can be measured upon peroral administration of the free fatty acid (e.g, octanoic acid) at five different doses to a patient population (n=3 per dose). This pharmacokinetic data 120 can be analyzed using PKanalix 2020R1 (e.g., Lixoft, Antony, France). These injections, infusions, and/or consumptions of the doses by a target patient can be provided to the PBB model 102 (e.g., as the patient data 105). […]

The nature of data set [3]: Estimated absorption of undigested tricaprilin into blood circulation. As to conditions: during the first 4 hours. The protocol: As a next step, the digestion of the MCT formulation (such as AC-SD-03) in vitro can be measured. The formulation can be exposed to a gastric medium followed by lipolysis in a medium simulating intestinal conditions. The latter can result in the liberation of fatty acids expressed as the percentage of digested free fatty acid (e.g., tricaprilin), as shown at the graph 306. For each mole of tricaprilin, three moles of titratable fatty acids can be released. Within the first 5 min, 40±3% of tricaprilin can be converted to octanoic acid, followed by a gradual reduction in the digestion rate. After 15 min, the digestion profile plateaued at 83±4%. Assuming rapid absorption from the intestine, the digestion rate (kd) and extent (F) of lipolysis are mainly responsible for the bioavailability of octanoic acid. […] On a side note, there can be a certain probability that undigested tricaprilin can be absorbed into blood circulation as well. However, one estimated rate can be […] for this process. This corresponds to less than 0.5% of the total dose during the first 4 hours. […] Metabolic processes such as the hepatic conversion of tricaprilin would generally result in the formation of octanoic acid, subsequently converted to ketone bodies.

The conditions of data set [4]: cited from earlier work.
Data set [5] in a line: Phase I clinical pharmacokinetic study of AC-SD-03. It counts as in vivo, healthy male (Caucasian and Chinese) volunteers. As to conditions: human. The protocol: A clinical pharmacokinetic study can be conducted (e.g., to generate the model inputs 106) with the MCT formulation. For example, a clinical pharmacokinetic study was conducted on the tricaprilin product AC-SD-03, approved by the local Institutional Review Board and carried out in compliance with the Good Clinical Practice guidelines of the International Conference of Harmonization (ICH-GCP). It was an open-label, randomized 2-way crossover study. Twenty healthy male (Caucasian and Chinese) volunteers in an age range of 18-50 years were enrolled. All subjects had undergone a supervised overnight fast of at least 8 h until 1 h before their scheduled morning dose. The breakfast consisting of 2 pieces of toast with butter, 2 strips of bacon, 2 scrambled eggs, 113 g of hash browns, and 240 mL of whole milk was standardized for all subjects. […] An additional 60 ml of water was used to rinse the dosing cup and administered to the subjects. Water was only restricted 1 h before and 1 h after drug administration, but was allowed ad libitum at all other times. Food and other fluid intake was restricted throughout the confinement period. Upon peroral administration of a single dose of the formulation, the blood tricaprilin, octanoic acid, and ketone body concentrations were quantified. For tricaprilin, blood samples were collected at 0, 1.5, 2.0, 2.5, and 8 h. […]

In brackets after ≈: the same amount, converted by molar mass.

For `CCCCCCCC(=O)O` [octanoic acid], in data set [1], the “absorption rate of fatty acids” value came to 1.7 h^1 and the ketogenesis rate is 2.6 h^1. In data set [2], the “VOA, volume of distribution of octanoic acid” value lay within 40.55 to 163.26 L and the “absorption rate constant (ka)” value lay within 0.23 to 3.16 h⁻¹.
`CCCCCCCC(=O)OCC(COC(=O)CCCCCCC)OC(=O)CCCCCCC` [Tricaprilin] came in with a lipolysis rate in data set [1] of 4.6 h⁻¹. The “fraction of total dose absorbed as undigested tricaprilin” value in data set [3] is listed as “less than 0.5%”. Moreover, the aqueous solubility in data set [4] is 0.4 µg/mL (≈ 0.85 µM). Besides, the “tricaprilin found in blood circulation” value in data set [5] (phase I clinical trial, peroral AC-SD-03) is on record as “negligible amounts”. The Cmax in data set [5] (male, blood, oral, 50 g AC-SD-03 (42,500 μmol tricaprilin), read-out: Cmax of undigested triglyceride) is 1050 nM.

As usually defined, the aqueous solubility is the dissolved amount per volume that the medium holds. By Cmax is commonly meant the maximum level reached in the sampled fluid or tissue.
